Starred links: 1 amine or outer side, 2 acyl side, 3 side chain; linkers in the order of their positions; H or OH if unused. Positions of bridges follow the written chain, without caps; N, C: chain ends. Non-standard residues stand in square brackets, D forms with d. Residues, ends and D or L forms follow the SMILES beside them. X33 = O=C([C@H](CNC[C@H](O)[C@@H](O)[C@@H](O)CO)N[*:1])[*:2]; Trp(1-CH2COOH) = N[C@@H](Cc1cn(CC(=O)O)c2ccccc12)C(=O)O; X45 = CCn1c2ccccc2c2cc(CNC[C@H](N[*:1])C(=O)[*:2])ccc21; X21 = O=C([C@H](CCNCc1c2ccccc2nc2ccccc12)N[*:1])[*:2]; X55 = O=C([C@H](CCNCc1cccc2ccc3ccccc3c12)N[*:1])[*:2]; X10 = O=C([C@H](CNCc1c2ccccc2nc2ccccc12)N[*:1])[*:2]; X12 = O=C([C@H](CNCc1cccc2ccc3ccccc3c12)N[*:1])[*:2]; X36 = COc1cc2cccc(OC)c2cc1CNC[C@H](N[*:1])C(=O)[*:2]; X13 = O=C([C@H](CNCc1cccc2[nH]ccc12)N[*:1])[*:2]; X16 = O=C([C@H](CCNCC(O)C(O)C(O)CO)N[*:1])[*:2]; X15 = O=C([C@H](CNCC(O)C(O)C(O)CO)N[*:1])[*:2]; X17 = O=C([C@H](CNCc1cncc2ccccc12)N[*:1])[*:2]; X20 = O=C([C@H](CNCc1nccc2ccccc12)N[*:1])[*:2]; X61 = O=C([C@H](CCNCc1ccccc1O)N[*:1])[*:2]; X60 = O=C([C@H](CNCc1ccccc1O)N[*:1])[*:2]; Hyp = O=C(O)[C@@H]1C[C@@H](O)CN1; NMeNle = CCCC[C@H](NC)C(=O)O; NMeA = CN[C@@H](C)C(=O)O; Dab = NCC[C@H](N)C(=O)O

T1 sequence (Q9NZQ7 18-239): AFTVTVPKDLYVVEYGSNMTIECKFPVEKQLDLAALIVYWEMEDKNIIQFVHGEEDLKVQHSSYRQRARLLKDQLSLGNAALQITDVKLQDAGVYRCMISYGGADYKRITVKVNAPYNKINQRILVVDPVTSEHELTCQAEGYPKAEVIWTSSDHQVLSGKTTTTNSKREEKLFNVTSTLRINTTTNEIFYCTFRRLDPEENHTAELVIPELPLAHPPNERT

The test addresses T1, PD-1/PD-L1 (Homo sapiens, UniProt Q9NZQ7).
T1 construct: TVMV protease site (linker) (C); made in house; host or cells: HEK293T cells
Put plainly: PD-1/PD-L1 Homogenous Time-Resolved Fluorescence (HTRF) binding assay. Particulars: PD-L1-His 10 nM, PD-1-Ig 20 nM. The text has this: The ability of the compounds of formula (I) to bind to PD-L1 was investigated using a PD-1/PD-L1 Homogenous Time-Resolved Fluorescence (HTRF) binding assay.
The interaction of PD-1 and PD-L1 can be assessed using soluble, purified preparations of the extracellular domains of the two proteins. The PD-1 and PD-L1 protein extracellular domains were expressed as fusion proteins with detection tags, for PD-1, the tag was the Fc portion of Immunoglobulin (PD-1-Ig) and for PD-L1 it was the 6 histidine motif (PD-L1-His). All binding studies were performed in an HTRF assay buffer consisting of dPBS supplemented with 0.1% […] bovine serum albumin and 0.05% (v/v) Tween-20. For the h/PD-L1-His binding assay, inhibitors were pre-incubated with PD-L1-His (10 nM final) for 15 m in 4 µl of assay buffer, followed by addition of PD-1-Ig (20 nM final) in 1 µl of assay buffer and further incubation for 15 m. HTRF detection was achieved using europium crypate-labeled anti-Ig (1 nM final) and allophycocyanin (APC) labeled anti-His (20 nM final). Antibodies were diluted in HTRF detection buffer and 5 µl was dispensed on top of the binding reaction. The reaction mixture was allowed to equilibrate for 30 minutes and the resulting signal (665 nm/620 nm ratio) was obtained using an EnVision fluorometer. Additional binding assays were established between the human proteins PD-1-Ig/PD-L2-His (20 & 5 nM, respectively) and CD80-His/PD-L1-Ig (100 & 10 nM, respectively).
Recombinant Proteins: Human PD-1 (25-167) with a C-terminal human Fc domain of immunoglobulin G (Ig) epitope tag [hPD-1 (25-167)-3S-IG] and human PD-L1 (18-239) with a C-terminal His epitope tag [hPD-L1(18-239)-TVMV-His] were expressed in HEK293T cells and purified sequentially by ProteinA affinity chromatography and size exclusion chromatography. Human PD-L2-His and CD80-His was obtained through commercial sources.
Table 1 lists the IC50 values for representative examples of this disclosure measured in the PD-1/PD-L1 Homogenous Time-Resolved Fluorescence (HTRF) binding assay.
`CCCC[C@H]1C(=O)N(C)[C@@H](CCCC)C(=O)N[C@@H](CC(C)C)C(=O)N[C@H](C(=O)NCC(N)=O)CSCC(=O)N[C@@H](Cc2ccc(O)cc2)C(=O)N(C)[C@@H](C)C(=O)N[C@@H](CC(N)=O)C(=O)N2CCC[C@H]2C(=O)N[C@@H](CNCc2ccc3c(c2)c2ccccc2n3CC)C(=O)N[C@@H](CC(C)C)C(=O)N2C[C@H](O)C[C@H]2C(=O)N[C@@H](Cc2c[nH]c3ccccc23)C(=O)N[C@@H](CCN)C(=O)N[C@@H](Cc2cn(CC(=O)O)c3ccccc23)C(=O)N1C` [Example 1014] ({CH2CO}-Y[NMeA]NP[X45]L[Hyp]W[Dab][Trp(1-CH2COOH)][NMeNle][NMeNle]LCG-NH2; thioether N-14) returned an IC50 of 4.7 nM. The value for `CCCC[C@H]1C(=O)N(C)[C@@H](CCCC)C(=O)N[C@@H](CC(C)C)C(=O)N[C@H](C(=O)NCC(N)=O)CSCC(=O)N[C@@H](Cc2ccc(O)cc2)C(=O)N(C)[C@@H](C)C(=O)N[C@@H](CC(N)=O)C(=O)N2CCC[C@H]2C(=O)N[C@@H](CNCc2cccc3[nH]ccc23)C(=O)N[C@@H](CC(C)C)C(=O)N2C[C@H](O)C[C@H]2C(=O)N[C@@H](Cc2c[nH]c3ccccc23)C(=O)N[C@@H](CCN)C(=O)N[C@@H](Cc2cn(CC(=O)O)c3ccccc23)C(=O)N1C` [Example 1015] ({CH2CO}-Y[NMeA]NP[X13]L[Hyp]W[Dab][Trp(1-CH2COOH)][NMeNle][NMeNle]LCG-NH2; thioether N-14) was 5.1 nM; that for `CCCC[C@H]1C(=O)N(C)[C@@H](CCCC)C(=O)N[C@@H](CC(C)C)C(=O)N[C@H](C(=O)NCC(N)=O)CSCC(=O)N[C@@H](Cc2ccc(O)cc2)C(=O)N(C)[C@@H](C)C(=O)N[C@@H](CC(N)=O)C(=O)N2CCC[C@H]2C(=O)N[C@@H](CNCc2cc3c(OC)cccc3cc2OC)C(=O)N[C@@H](CC(C)C)C(=O)N2C[C@H](O)C[C@H]2C(=O)N[C@@H](Cc2c[nH]c3ccccc23)C(=O)N[C@@H](CCN)C(=O)N[C@@H](Cc2cn(CC(=O)O)c3ccccc23)C(=O)N1C` [Example 1016] ({CH2CO}-Y[NMeA]NP[X36]L[Hyp]W[Dab][Trp(1-CH2COOH)][NMeNle][NMeNle]LCG-NH2; thioether N-14) was 6.4 nM; that for `CCCC[C@H]1C(=O)N(C)[C@@H](CCCC)C(=O)N[C@@H](CC(C)C)C(=O)N[C@H](C(=O)NCC(N)=O)CSCC(=O)N[C@@H](Cc2ccc(O)cc2)C(=O)N(C)[C@@H](C)C(=O)N[C@@H](CC(N)=O)C(=O)N2CCC[C@H]2C(=O)N[C@@H](CNCc2nccc3ccccc23)C(=O)N[C@@H](CC(C)C)C(=O)N2C[C@H](O)C[C@H]2C(=O)N[C@@H](Cc2c[nH]c3ccccc23)C(=O)N[C@@H](CCN)C(=O)N[C@@H](Cc2cn(CC(=O)O)c3ccccc23)C(=O)N1C` [Example 1018] ({CH2CO}-Y[NMeA]NP[X20]L[Hyp]W[Dab][Trp(1-CH2COOH)][NMeNle][NMeNle]LCG-NH2; thioether N-14) was 8.4 nM.

As for `CCCC[C@H]1C(=O)N(C)[C@@H](CCCC)C(=O)N[C@@H](CC(C)C)C(=O)N[C@H](C(=O)NCC(N)=O)CSCC(=O)N[C@@H](Cc2ccc(O)cc2)C(=O)N(C)[C@@H](C)C(=O)N[C@@H](CC(N)=O)C(=O)N2CCC[C@H]2C(=O)N[C@@H](CNCc2cncc3ccccc23)C(=O)N[C@@H](CC(C)C)C(=O)N2C[C@H](O)C[C@H]2C(=O)N[C@@H](Cc2c[nH]c3ccccc23)C(=O)N[C@@H](CCN)C(=O)N[C@@H](Cc2cn(CC(=O)O)c3ccccc23)C(=O)N1C` [Example 1019] ({CH2CO}-Y[NMeA]NP[X17]L[Hyp]W[Dab][Trp(1-CH2COOH)][NMeNle][NMeNle]LCG-NH2; thioether N-14), the IC50 worked out at 7.9 nM. The value for `CCCC[C@H]1C(=O)N(C)[C@@H](CCCC)C(=O)N[C@@H](CC(C)C)C(=O)N[C@H](C(=O)NCC(N)=O)CSCC(=O)N[C@@H](Cc2ccc(O)cc2)C(=O)N(C)[C@@H](C)C(=O)N[C@@H](CC(N)=O)C(=O)N2CCC[C@H]2C(=O)N[C@@H](CNCc2c3ccccc3nc3ccccc23)C(=O)N[C@@H](CC(C)C)C(=O)N2C[C@H](O)C[C@H]2C(=O)N[C@@H](Cc2c[nH]c3ccccc23)C(=O)N[C@@H](CCNCc2c3ccccc3nc3ccccc23)C(=O)N[C@@H](Cc2cn(CC(=O)O)c3ccccc23)C(=O)N1C` [Example 1020] ({CH2CO}-Y[NMeA]NP[X10]L[Hyp]W[X21][Trp(1-CH2COOH)][NMeNle][NMeNle]LCG-NH2; thioether N-14) was 9.9 nM. Under `CCCC[C@H]1C(=O)N(C)[C@@H](CCCC)C(=O)N[C@@H](CC(C)C)C(=O)N[C@H](C(=O)NCC(N)=O)CSCC(=O)N[C@@H](Cc2ccc(O)cc2)C(=O)N(C)[C@@H](C)C(=O)N[C@@H](CC(N)=O)C(=O)N2CCC[C@H]2C(=O)N[C@@H](CNCc2ccccc2O)C(=O)N[C@@H](CC(C)C)C(=O)N2C[C@H](O)C[C@H]2C(=O)N[C@@H](Cc2c[nH]c3ccccc23)C(=O)N[C@@H](CCNCc2ccccc2O)C(=O)N[C@@H](Cc2cn(CC(=O)O)c3ccccc23)C(=O)N1C` [Example 1021] ({CH2CO}-Y[NMeA]NP[X60]L[Hyp]W[X61][Trp(1-CH2COOH)][NMeNle][NMeNle]LCG-NH2; thioether N-14) stands 7.6 nM; under `CCCC[C@H]1C(=O)N(C)[C@@H](CCCC)C(=O)N[C@@H](CC(C)C)C(=O)N[C@H](C(=O)NCC(N)=O)CSCC(=O)N[C@@H](Cc2ccc(O)cc2)C(=O)N(C)[C@@H](C)C(=O)N[C@@H](CC(N)=O)C(=O)N2CCC[C@H]2C(=O)N[C@@H](CNCc2cccc3ccc4ccccc4c23)C(=O)N[C@@H](CC(C)C)C(=O)N2C[C@H](O)C[C@H]2C(=O)N[C@@H](Cc2c[nH]c3ccccc23)C(=O)N[C@@H](CCNCc2cccc3ccc4ccccc4c23)C(=O)N[C@@H](Cc2cn(CC(=O)O)c3ccccc23)C(=O)N1C` [Example 1022] ({CH2CO}-Y[NMeA]NP[X12]L[Hyp]W[X55][Trp(1-CH2COOH)][NMeNle][NMeNle]LCG-NH2; thioether N-14), 1400 nM; under `CCCC[C@H]1C(=O)N(C)[C@@H](CCCC)C(=O)N[C@@H](CC(C)C)C(=O)N[C@H](C(=O)NCC(N)=O)CSCC(=O)N[C@@H](Cc2ccc(O)cc2)C(=O)N(C)[C@@H](C)C(=O)N[C@@H](CC(N)=O)C(=O)N2CCC[C@H]2C(=O)N[C@@H](CNCC(O)C(O)C(O)CO)C(=O)N[C@@H](CC(C)C)C(=O)N2C[C@H](O)C[C@H]2C(=O)N[C@@H](Cc2c[nH]c3ccccc23)C(=O)N[C@@H](CCNCC(O)C(O)C(O)CO)C(=O)N[C@@H](Cc2cn(CC(=O)O)c3ccccc23)C(=O)N1C` (stereo partly shown) [Example 2001] ({CH2CO}-Y[NMeA]NP[X15]L[Hyp]W[X16][Trp(1-CH2COOH)][NMeNle][NMeNle]LCG-NH2; thioether N-14), 7.8 nM. Under `CCCC[C@H]1C(=O)N(C)[C@@H](CCCC)C(=O)N[C@@H](CC(C)C)C(=O)N[C@H](C(=O)NCC(N)=O)CSCC(=O)N[C@@H](Cc2ccc(O)cc2)C(=O)N(C)[C@@H](C)C(=O)N[C@@H](CC(N)=O)C(=O)N2CCC[C@H]2C(=O)N[C@@H](CNC[C@H](O)[C@@H](O)[C@@H](O)CO)C(=O)N[C@@H](CC(C)C)C(=O)N2C[C@H](O)C[C@H]2C(=O)N[C@@H](Cc2c[nH]c3ccccc23)C(=O)N[C@@H](CCN)C(=O)N[C@@H](Cc2cn(CC(=O)O)c3ccccc23)C(=O)N1C` [Example 2002] ({CH2CO}-Y[NMeA]NP[X33]L[Hyp]W[Dab][Trp(1-CH2COOH)][NMeNle][NMeNle]LCG-NH2; thioether N-14) stands 5 nM.

The values are drawn from patent US20230242585A1, “IMMUNOMODULATORS” (Bristol-Myers Squibb Company, priority 2020, published 2023).
